Laboratory results as given in patent US11629171B2, “Beta-hairpin peptidomimetics” (POLYPHOR AG, priority 2017, dated 2023).
Values after ≈ are worked out from the molar mass of the structure shown. Where a SMILES comes first, the peptide text is derived from it. Bridges are numbered along the chain shown (N, C = ends). Roman numbers before positions name the chains, in order. [ ]: non-standard residue; d: D form. Tle = CC(C)(C)[C@H](N)C(=O)O; NMeV = CN[C@H](C(=O)O)C(C)C; dDab = NCC[C@@H](N)C(=O)O; hSer = N[C@@H](CCO)C(=O)O; Dab = NCC[C@H](N)C(=O)O

Assays:
Assay type in all cases: cell-based
[1] = system: Escherichia coli ATCC 25922; details: ATCC 25922
Summary of the method: (§1)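 MIC in μg/mL, read as no visible growth after 18-20 hours at 35° C. Peptides were serially diluted two-fold in MH-II broth plus P-80 (0.002% final, v/v) and inoculated at about 10^6 CFU/mL following the CLSI broth microdilution standard.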

[2] = system: Acinetobacter baumannii 872842; details: 872842
Summary of the method: as §1

[3] = system: Enterobacter cloacae 848840; details: 848840
Summary of the method: as §1

[4] = system: Acinetobacter baumannii DSM 30008; details: DSM 30008
Summary of the method: as §1

[5] = system: Pseudomonas aeruginosa ATCC 27853; details: ATCC 27853
Summary of the method: as §1

Escherichia coli 926415 = details: 926415
Summary of the method: as §1

[6] = system: Klebsiella pneumoniae 968733; details: 968733
Summary of the method: as §1

[7] = system: Klebsiella pneumoniae SSI #3010; details: SSI #3010
Summary of the method: as §1

[8] = system: human red blood cells (hRBC); assay: Hemolysis; details: red cells of human, 1 h, 200
Summary of the method: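 First, fresh human erythrocytes are washed in PBS; next, they are incubated at 20% (v/v) with compound at 200 μg/mL for 1 h at 37° C. Finally, centrifuged supernatants are diluted and OD540 is taken relative to the Triton X-100 lysis control.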

| MIC [1] [µg/mL] | MIC [2] [µg/mL] | MIC [3] [µg/mL] | MIC [4] [µg/mL] | MIC [5] [µg/mL] | MIC (Escherichia coli 926415) [µg/mL] | MIC [6] [µg/mL] | MIC [7] [µg/mL] | SMILES | Hemolysis at 200 μg/mL [8] [%] |
| --- | --- | --- | --- | --- | --- | --- | --- | --- | --- |
| 0.125 (≈ 0.0509 µM) | 0.25 (≈ 0.102 µM) | 0.25 (≈ 0.102 µM) | 0.0625 (≈ 0.0255 µM) | 0.125 (≈ 0.0509 µM) | 0.25 (≈ 0.102 µM) | 0.125 (≈ 0.0509 µM) | 0.125 (≈ 0.0509 µM) | CC(=O)N[C@H](C(=O)N[C@H]1CSSC[C@@H](C(=O)N[C@@H](CO)C(N)=O)NC(=O)[C@H](C(C)(C)C)NC(=O)[C@H](CCO)NC(=O)[C@H](Cc2c[nH]c3ccccc23)NC(=O)[C@H](CCO)NC(=O)[C@@H](CCN)NC(=O)[C@H](CCC(=O)N[C@@H](CCN)C(=O)N[C@H](C(=O)N[C@@H](CCN)C(=O)N[C@H]2CCNC(=O)[C@H]([C@@H](C)O)NC(=O)[C@H](CCN)NC(=O)[C@H](CCN)NC(=O)[C@H](CC(C)C)NC(=O)[C@@H](CC(C)C)NC(=O)[C@H](CCN)NC2=O)[C@@H](C)O)NC(=O)[C@H](CCN)NC(=O)[C@H](Cc2ccc(O)cc2)NC1=O)C(C)C [Ex. 49] (I: Ac-VCY[Dab]E[dDab][hSer]W[hSer][Tle]CS-NH2 / II: [Dab]T[Dab][Dab][Dab][dL]L[Dab][Dab]T; disulfide I:2-I:11; amide I:5-II:N; lactam II:4-II:C) | <1 |
| 0.25 (≈ 0.103 µM) | 0.25 (≈ 0.103 µM) | 0.5 (≈ 0.206 µM) | 0.5 (≈ 0.206 µM) | 0.125 (≈ 0.0515 µM) | 0.5 (≈ 0.206 µM) | 1 (≈ 0.412 µM) | 0.125 (≈ 0.0515 µM) | CN[C@H](C(=O)N[C@H]1CSSC[C@@H](C(=O)N[C@@H](CO)C(N)=O)NC(=O)[C@H](C(C)(C)C)NC(=O)[C@H](CCO)NC(=O)[C@H](Cc2c[nH]c3ccccc23)NC(=O)[C@H](CCO)NC(=O)[C@@H](CCN)NC(=O)[C@H](CCC(=O)N[C@@H](CCN)C(=O)N[C@H](C(=O)N[C@@H](CCN)C(=O)N[C@H]2CCNC(=O)[C@H]([C@@H](C)O)NC(=O)[C@H](CCN)NC(=O)[C@H](CCN)NC(=O)[C@H](CC(C)C)NC(=O)[C@@H](CC(C)C)NC(=O)[C@H](CCN)NC2=O)[C@@H](C)O)NC(=O)[C@H](CCN)NC(=O)[C@H](Cc2ccc(O)cc2)NC1=O)C(C)C [Ex. 51] (I: H-[NMeV]CY[Dab]E[dDab][hSer]W[hSer][Tle]CS-NH2 / II: [Dab]T[Dab][Dab][Dab][dL]L[Dab][Dab]T; disulfide I:2-I:11; amide I:5-II:N; lactam II:4-II:C) | <1 |

The remaining lines, values behind:

| SMILES | MIC [1] [µg/mL] | MIC [2] [µg/mL] | MIC [3] [µg/mL] | MIC [4] [µg/mL] | MIC [5] [µg/mL] | MIC (Escherichia coli 926415) [µg/mL] | MIC [6] [µg/mL] | MIC [7] [µg/mL] | Hemolysis at 200 μg/mL [8] [%] |
| --- | --- | --- | --- | --- | --- | --- | --- | --- | --- |
| CC(=O)N[C@H](C(=O)N[C@H]1CSSC[C@@H](C(=O)N[C@@H](CO)C(N)=O)NC(=O)[C@H](C(C)(C)C)NC(=O)[C@H](CO)NC(=O)[C@H](Cc2c[nH]c3ccccc23)NC(=O)[C@H]([C@@H](C)O)NC(=O)[C@@H](CCN)NC(=O)[C@H](CCC(=O)N[C@@H](CCN)C(=O)N[C@H](C(=O)N[C@@H](CCN)C(=O)N[C@H]2CCNC(=O)[C@H]([C@@H](C)O)NC(=O)[C@H](CCN)NC(=O)[C@H](CCN)NC(=O)[C@H](CC(C)C)NC(=O)[C@@H](CC(C)C)NC(=O)[C@H](CCN)NC2=O)[C@@H](C)O)NC(=O)[C@H](CO)NC(=O)[C@H](Cc2ccc(O)cc2)NC1=O)C(C)C [Ex. 46] (I: Ac-VCYSE[dDab]TWS[Tle]CS-NH2 / II: [Dab]T[Dab][Dab][Dab][dL]L[Dab][Dab]T; disulfide I:2-I:11; amide I:5-II:N; lactam II:4-II:C) | 0.0625 (≈ 0.0257 µM) | 0.125 (≈ 0.0515 µM) | 0.125 (≈ 0.0515 µM) | 0.0625 (≈ 0.0257 µM) | 0.125 (≈ 0.0515 µM) | 0.125 (≈ 0.0515 µM) | 0.5 (≈ 0.206 µM) | 0.125 (≈ 0.0515 µM) | 2 |
| CC(C)C[C@@H]1NC(=O)[C@@H](CC(C)C)NC(=O)[C@H](CCN)NC(=O)[C@@H](NC(=O)[C@H](CCN)NC(=O)[C@@H](NC(=O)[C@H](CCN)NC(=O)CC[C@@H]2NC(=O)[C@H](CCN)NC(=O)[C@H](Cc3ccc(O)cc3)NC(=O)[C@@H](NC(=O)[C@@H](N)C(C)C)CSSC[C@@H](C(=O)N[C@@H](CO)C(N)=O)NC(=O)[C@H](C(C)(C)C)NC(=O)[C@H](CO)NC(=O)[C@H](Cc3c[nH]c4ccccc34)NC(=O)[C@H]([C@@H](C)O)NC(=O)[C@@H](CCN)NC2=O)[C@@H](C)O)CCNC(=O)[C@H]([C@@H](C)O)NC(=O)[C@H](CCN)NC(=O)[C@H](CCN)NC1=O [Ex. 47] (I: H-VCY[Dab]E[dDab]TWS[Tle]CS-NH2 / II: [Dab]T[Dab][Dab][Dab][dL]L[Dab][Dab]T; disulfide I:2-I:11; amide I:5-II:N; lactam II:4-II:C) | 0.0625 (≈ 0.0261 µM) | 0.125 (≈ 0.0521 µM) | 4 (≈ 1.67 µM) | 0.125 (≈ 0.0521 µM) | 0.125 (≈ 0.0521 µM) | 0.25 (≈ 0.104 µM) | 1 (≈ 0.417 µM) | 0.125 (≈ 0.0521 µM) | <1 |
| CC(C)C[C@@H]1NC(=O)[C@@H](CC(C)C)NC(=O)[C@H](CCN)NC(=O)[C@@H](NC(=O)[C@H](CCN)NC(=O)[C@@H](NC(=O)[C@H](CCN)NC(=O)CC[C@@H]2NC(=O)[C@H](CCN)NC(=O)[C@H](Cc3ccc(O)cc3)NC(=O)[C@@H](NC(=O)[C@@H](N)C(C)C)CSSC[C@@H](C(=O)N[C@@H](CO)C(N)=O)NC(=O)[C@H](C(C)C)NC(=O)[C@H](CCO)NC(=O)[C@H](Cc3c[nH]c4ccccc34)NC(=O)[C@H](CCO)NC(=O)[C@@H](CCN)NC2=O)[C@@H](C)O)CCNC(=O)[C@H]([C@@H](C)O)NC(=O)[C@H](CCN)NC(=O)[C@H](CCN)NC1=O [Ex. 48] (I: H-VCY[Dab]E[dDab][hSer]W[hSer]VCS-NH2 / II: [Dab]T[Dab][Dab][Dab][dL]L[Dab][Dab]T; disulfide I:2-I:11; amide I:5-II:N; lactam II:4-II:C) | 0.25 (≈ 0.104 µM) | 0.5 (≈ 0.208 µM) | 4 (≈ 1.67 µM) | 0.25 (≈ 0.104 µM) | 0.125 (≈ 0.0521 µM) | 1 (≈ 0.417 µM) | 8 (≈ 3.33 µM) | 0.25 (≈ 0.104 µM) | <1 |
| CN[C@H](C(=O)N[C@H]1CSSC[C@@H](C(=O)N[C@@H](CO)C(N)=O)NC(=O)[C@H](C(C)C)NC(=O)[C@H](CCO)NC(=O)[C@H](Cc2c[nH]c3ccccc23)NC(=O)[C@H](CCO)NC(=O)[C@@H](CCN)NC(=O)[C@H](CCC(=O)N[C@@H](CCN)C(=O)N[C@H](C(=O)N[C@@H](CCN)C(=O)N[C@H]2CCNC(=O)[C@H]([C@@H](C)O)NC(=O)[C@H](CCN)NC(=O)[C@H](CCN)NC(=O)[C@H](CC(C)C)NC(=O)[C@@H](CC(C)C)NC(=O)[C@H](CCN)NC2=O)[C@@H](C)O)NC(=O)[C@H](CCN)NC(=O)[C@H](Cc2ccc(O)cc2)NC1=O)C(C)C [Ex. 50] (I: H-[NMeV]CY[Dab]E[dDab][hSer]W[hSer]VCS-NH2 / II: [Dab]T[Dab][Dab][Dab][dL]L[Dab][Dab]T; disulfide I:2-I:11; amide I:5-II:N; lactam II:4-II:C) | 0.125 (≈ 0.0518 µM) | 1 (≈ 0.414 µM) | 8 (≈ 3.32 µM) | 0.25 (≈ 0.104 µM) | 0.25 (≈ 0.104 µM) | 0.5 (≈ 0.207 µM) | 4 (≈ 1.66 µM) | 0.125 (≈ 0.0518 µM) | <1 |
